Test results from US11596632B2, “JAK1 pathway inhibitors for the treatment of gastrointestinal disease” (Incyte Corporation, priority 2018, dated 2023).
“Also recorded” adds a separate entry of the source.

Assays:
[1] = test system: TNBS-induced colitis in BALB/c mice; assay: TNBS-induced colitis model in mice; assay type: in vivo, mouse
Source text: Preclinical models of IBD were established in BALB/c mice by intracolonic injection of 2,4,6-trinitrobenzene sulfonic acid (TNBS) or 4-ethoxymethylene-2-phenyl-2-oxazolin-5-one (oxazolone) to trigger an immune response, as described below. Body weight, stool consistency and fecal blood were scored. Additional readouts included colon weight to length ratio and histological evaluation. Blood was collected for pharmacokinetic analysis.
Male BALB/c mice were purchased (Charles River Laboratories) and distal colitis was induced by intracolonic instillation of TNBS (2,4,6-trinitrobenzenesulfonic acid solution, 1 mg in 0.1 mL 50% ethanol). Compound 1 treatment was administered at 30 mg/kg by oral gavage (PO) or 3 mg/kg by intracolonic injection (IC) twice daily (BID). Diarrhea was quantified on a 0-3 rating scale, (0=normal; 1=soft but still formed; 2=very soft; 3=diarrhea) on days 3 to 5 post TNBS sensitization.

[2] = test system: patients with plaque psoriasis; assay: Clinical study in patients with plaque psoriasis (sPGA, safety); assay type: in vivo, human
Description: (§1) The systemic effects of Compound 1 have been studied in the auto-immune diseases RA and Ps. Inhibition of phosphorylation of STAT3 following stimulation with IL-6, a marker of AK1 inhibition, and TPO, a marker of JAK2 inhibition was measured in both studies. In patients with Ps doses of 100 mg QD, 200 mg QD, 200 mg BID, and 600 mg QD were studied.

[3] = test system: IL-6-induced STAT3 phosphorylation; assay: Ex vivo IL-6-induced STAT3 phosphorylation in dosed patients (marker of JAK1 inhibition); design: species or system human; conditions: 100 mg QD to 600 mg QD
Description: To assess the inhibitory activity of Compound 1 in serum-rich media, e.g., plasma or whole blood, the assay is conducted using whole blood; briefly, the whole blood sample is stimulated with IL-6 and levels of phosphorylated STAT3 are determined. This assay can be conducted either in vitro (human blood samples are spiked with Compound 1) or ex vivo (whole blood samples collected from human subjects dosed with Compound 1).
as §1

JAK2 (a.a. 828-1132) = JAK2 (a.a. 828-1132) (Homo sapiens (Human), UniProt O60674); assay: In vitro JAK kinase assay (HTRF), JAK2 relative to JAK1; assay type: biochemical; conditions: IC50 ratio, 1 mM ATP
JAK2 (a.a. 828-1132), sequence (O60674 828-1132): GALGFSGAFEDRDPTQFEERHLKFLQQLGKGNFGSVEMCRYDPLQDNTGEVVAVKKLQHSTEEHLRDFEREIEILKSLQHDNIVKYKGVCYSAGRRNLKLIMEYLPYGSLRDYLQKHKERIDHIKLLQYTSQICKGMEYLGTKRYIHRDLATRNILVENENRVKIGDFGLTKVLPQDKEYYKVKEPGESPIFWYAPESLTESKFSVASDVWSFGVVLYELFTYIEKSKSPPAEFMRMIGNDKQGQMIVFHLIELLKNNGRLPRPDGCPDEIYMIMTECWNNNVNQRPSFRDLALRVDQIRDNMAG
Description: The catalytic activity of JAK1, JAK2 or JAK3 was assayed by measuring the phosphorylation of a biotinylated peptide. The phosphorylated peptide was detected by homogenous time resolved fluorescence (HTRF). […] Reactions are carried out at room temperature for 1 hour and then stopped with 20 μL 45 mM EDTA, 300 nM SA-APC, 6 nM Eu-Py20 in assay buffer (Perkin Elmer, Boston, Mass.). Binding to the Europium labeled antibody takes place for 40 minutes and HTRF signal was measured on a Fusion plate reader (Perkin Elmer, Boston, Mass.).

[4] = test system: oxazolone-induced colitis in BALB/c mice; assay: Mouse oxazolone-induced colitis model; assay type: in vivo
[5] = Fecal concentration and excretion after oral sustained release dose; assay type: in vivo, human
Description: The method used for analyzing Compound 1 in human feces is a qualified method. The human fecal samples are collected in 1:1 homogenate at the clinical site [1 part of water (mL): 1 part of faces(g)]. Prior to sample analysis, additional water is added to the sample homogenate to achieve the final ratio of feces to water at 1:19 as calibration standard and QC samples. The final homogenates are processed and analyzed with calibration standards and QC samples. For human homogenate analysis, briefly, 100 μL of the feces homogenate (blanks, QC and study samples) is placed in a test tube. After an aliquot of 20 μL of internal standard is added and mixed, an aliquot of 200 μL of 0.1 M NaHCO3 is added and vortexed. Then 2 mL of MtBE is added and the samples are vortexed. After centrifugation, MtBE layer is transferred to a clean test tube. The samples were then dried under nitrogen at approximately 40° C. An aliquot of 1 mL of reconstitution solution (acetonitrile:water, 50:50, v/v) is then added to each sample and vortexed. Then 10 μL of the sample was diluted with 3 mL reconstitution solution in a clean test tube. The sample is transferred to an autosampler vial and 10 μL is injected into an LC-MS/MS for analysis. The LC-MS/MS analysis is carried out with an AB Sciex API 4000 or API 4000 QTrap mass spectrometer coupled with an HPLC pump and an autosampler. The chromatographic separation is achieved on a Agilent Eclipse Plus C8 50×4.6 mm, 5 μm HPLC column, with gradient elution. The mass spectrometer is operated in positive ESI mode. MRM transition is m/z 554.3→186.2 for Compound 1 and m/z 558.4→190.2 for the internal standard. Peak-area integrations are performed using the Analyst software and concentrations are calculated in Watson LIMS. Concentrations of human feces homogenates are calculated using 8 concentration levels ranging from 1 μg/g to 300 μg/g (1.8 μM to 542 μM) with weighted linear regression, according to the following formula: y=ax+b(weighting factor=1/x^2)
where x=Compound 1 concentration in μg/g in human feces homogenates, y=Peak-area ratio, a=Slope, and b=Intercept.
Methods: Compound 1 concentrations in plasma and feces (colonic surrogate) were determined following a single sustained release 25 mg oral dose (see, e.g., Example B, 25 mg SR composition). Compound 1 concentrations in plasma following a single 100 mg dose were also determined in a separate study (see, e.g., Example C for measuring concentrations of Compound 1 in plasma). Ex vivo study: Colon tissue samples from healthy and UC subjects (2/group) were mounted on a vertical Ussing diffusion chamber. [^14C]Compound 1 was applied to the apical side of the chamber at 100 and 1000 nM and incubated for 1 h. Samples were collected from the donor and receiver sides for determination of Compound 1 concentration. The colonic tissue was snap frozen for quantitative autoradiography.

SMILES: N#CCC1(n2cc(-c3ncnc4[nH]ccc34)cn2)CN(C2CCN(C(=O)c3ccnc(C(F)(F)F)c3F)CC2)C1 [Compound 1, {1-{1-[3-Fluoro-2-(trifluoromethyl)isonicotinoyl]piperidin-4-yl}-3-[4-(7H-pyrrolo[2,3-d]pyrimidin-4-yl)-1H-pyrazol-1-yl]azetidin-3-yl}acetonitrile]
- fecal blood score ([1]; 3 mg/kg IC BID): significant (p<0.05) decrease in fecal blood score
- total colonic macroscopic damage ([1]; 3 mg/kg IC BID): ameliorated total colonic macroscopic damage
- disease severity / disease recovery ([1]; 3 mg/kg intracolonic BID): significantly reduced disease severity; also recorded: highly efficacious in enhancing disease recovery; also recorded: more rapidly induced recovery; also recorded: highly efficacious in TNBS-induced colitis
- disease severity / disease score recovery ([1]; 30 mg/kg PO BID, vs vehicle): significantly reduced disease severity; also recorded: accelerated disease score recovery
- stool consistency ([1]; 30 mg/kg PO or 3 mg/kg intracolonic, twice daily, vs control): significantly (p<0.05) improved stool consistency
- mean change from baseline sPGA at Day 28, dose relation ([2]; 100 mg QD, 200 mg QD, 200 mg BID, 600 mg QD): dose-dependent response
- Day 28 sPGA score, Mean (SD) ([2]; 100 mg QD, n=9): 2.6 (1.01)
- Day 28 sPGA score, Median ([2]; 100 mg QD, n=9): 2.0
- Percent change from baseline in sPGA score at Day 28, Median ([2]; 100 mg QD, n=9): −33.3%
- Percent change from baseline in sPGA score at Day 28, Mean (SD) ([2]; 100 mg QD, n=9, p=0.270 vs placebo): −22.2 (23.57) Percent
- change from baseline in sPGA, clinical meaning ([2]; 200 mg BID (p=0.053) and 600 mg QD (p=0.003)): clinically meaningful changes from baseline
- Day 28 sPGA score, Mean (SD) ([2]; 200 mg BID, n=9): 2.0 (1.00)
- Day 28 sPGA score, Median ([2]; 200 mg BID, n=9): 2.0
- Percent change from baseline in sPGA score at Day 28, Median ([2]; 200 mg BID, n=9): −33.3%
- Percent change from baseline in sPGA score at Day 28, Mean (SD) ([2]; 200 mg BID, n=9, p=0.053 vs placebo): −35.2 (33.79) Percent
- Day 28 sPGA score, Mean (SD) ([2]; 200 mg QD, n=9): 2.3 (1.00)
- Day 28 sPGA score, Median ([2]; 200 mg QD, n=9): 2.0
- Percent change from baseline in sPGA score at Day 28, Median ([2]; 200 mg QD, n=9): −33.3%
- Percent change from baseline in sPGA score at Day 28, Mean (SD) ([2]; 200 mg QD, n=9, p=0.118 vs placebo): −29.4 (31.14) Percent
- Day 28 sPGA score, Mean (SD) ([2]; 600 mg QD, n=11): 1.8 (0.98)
- Day 28 sPGA score, Median ([2]; 600 mg QD, n=11): 2.0
- Percent change from baseline in sPGA score at Day 28, Median ([2]; 600 mg QD, n=11): −33.3%
- Percent change from baseline in sPGA score at Day 28, Mean (SD) ([2]; 600 mg QD, n=11, p=0.003 vs placebo): −42.4 (26.21) Percent
- neutropenia ([2]; psoriasis patients): No neutropenia was noted
- inhibition of IL-6 induced pSTAT3 ([3]; RA patients, Cycle 1 Day 15): general trend of dose-dependent inhibition of IL-6 induced pSTAT3
- inhibition of pSTAT3 in response to IL-6 stimulation ex vivo ([3]; psoriasis patients): concentration dependent inhibition of pSTAT3
- JAK2/JAK1 (JAK2 (a.a. 828-1132)): >10
- colon shortening ([4]; 3 mg/kg IC BID): significantly ameliorated colon shortening; also recorded: significantly (p<0.05) reduced colon shortening
- macroscopic tissue pathology ([4]; 30 mg/kg BID oral): ameliorating macroscopic tissue pathology
- normalized colon weight (inflammatory swelling) ([4]; 30 mg/kg BID oral): reducing normalized colon weight
- recovery from diarrhea and rectal bleeding (symptoms) ([4]; 30 mg/kg BID oral): reduces symptoms; also recorded: efficacious in accelerating recovery from diarrhea and rectal bleeding
- colon shortening ([4]; 30 mg/kg PO BID): significantly ameliorated colon shortening; also recorded: significant (p<0.05) reduction in colon shortening
- stool consistency and fecal occult blood scoring ([4]; twice daily, orally or intracolonically, vs vehicle): significantly ameliorated stool consistency and reduced fecal occult blood scoring
- administered dose excreted intact as parent compound in the feces ([5]; humans, oral): ~30%
- Maximal fecal concentration, geometric mean ([5]; single 25 mg SR dose, feces 0-24 hours): 85.5 nM
- Maximal fecal concentration, Mean ([5]; single 25 mg SR dose, feces 0-24 hours, SD 41.4 nM): 93.4 nM
- patients with maximum fecal concentrations exceeding the in vitro IC50 for JAK1 inhibition (58 nM) ([5]; single 25 mg dose): eight of twelve
- dose eliminated as unchanged Compound 1 in the feces ([5]; sustained release formulation): 27.1%
